Test results: patent US7705013B2, “Use of canthin-6-one, plant extracts containing same and derivatives thereof in the treatment of trypanosomiases” (Institut de Recherche pour le Developpement, priority 2002, dated 2010)

Legend:
Trypanosoma cruzi [1] = assay: In vivo trial on Trypanosoma cruzi in the acute phase, Balb/c mice: parasitological evaluation (parasites in peripheral blood)
From the text: (§1) Animals and parasites: The Balb/c-type mice are bred in the animal house of the Health Sciences Research Institute (IICS, Asuncion, Paraguay) and are 6 to 8 weeks old at the time of the experimental protocols.
(§2) For these trials, the CL strain (Brener clone) of T. cruzi is used in the circulating form of the parasite (trypomastigotes). The animals are infected intraperitoneally with 5000 parasites; this strain produces its parasite peak 21 to 25 days after infection. Each week, the number of parasites is verified by means of a blood sample taken from the tail of the mouse.
(§3) Infection and treatment: The treatments with benznidazole, the reference medicinal product, and canthin-6-one begin 11 days after parasitic infection, at a rate of 50 mg/kg or 200 mM/kg for benznidazole and at the concentration of 5 mg/kg or 20 mM/kg for canthin-6-one. The duration of the treatments is fixed at two weeks and the chosen route of administration is oral for benznidazole and canthin-6-one; furthermore, a group of mice is treated with canthin-6-one administered subcutaneously. The untreated and infected mice are given 100 μl of a phosphate buffered saline solution.
(§4) • weekly counting of the number of parasites circulating in the peripheral blood throughout the experiment, i.e. 10 weeks; • observation of mortality; • two serological evaluations: 40 days post-infection, i.e. 15 days after treatment has been stopped, and 68 days post-infection, i.e. 45 days post-treatment. The serological evaluation is carried out by means of a Chagas ELISA assay (enzyme linked immunoassay) kit, IISC, Asuncion. The optical densities are measured with an ELISA plate reader (Titerek, Unistan, I).
(§5) Statistical studies: The mean and the standard deviations of each group are calculated, the differences between the groups are determined by means of the Student's test and the Kruskal-Wallis non-parametric analysis of variance test. The comparisons are carried out between the nontreated group and the treated groups, P<0.05.

Trypanosoma cruzi [2] = assay: In vivo trial on Trypanosoma cruzi in the acute phase, Balb/c mice: serological evaluation (anti-T. cruzi ELISA); details: for 1st serology (anti-T. cruzi ELISA, optical density): 40 days post-infection, 15 days post-treatment; for 2nd serology (anti-T. cruzi ELISA, optical density): 68 days post-infection, 45 days post-treatment
From the text: as §1, §2, §3, §4, §5

Trypanosoma cruzi [3] = assay: In vivo trial on Trypanosoma cruzi in the chronic phase, Balb/c mice: serological evaluation (ELISA)
From the text: (§6) The Balb/c-type mice are bred in the animal house of the Health Sciences Research Institute (IICS, Asuncion, Paraguay) and are 6 to 8 weeks old at the time of the experimental protocols. For this experimental protocol, the CL strain (Brener clone) of T. cruzi is used in the circulating form (trypomastigotes), and the strain is maintained in routine culture on an animal model by passage every 14 days. The animals are infected intraperitoneally with 1000 parasites. Under these experimental conditions, the parasites develop slowly; this strain produces a parasite peak 21 to 28 days after infection. The majority of the mice survive (70-80%) with slight deterioration of their general physical condition and with absent or subpatent parasitemia. Each week, the number of parasites is verified by taking a blood sample from the tail of the mouse.
(§7) For this long-duration experiment, the treatments begin 120 days after parasitic infection, when the parasitemia is subpatent in all the mice. The mice are then divided up into groups randomly. The treatments with benznidazole, the reference medicinal product, are administered at a concentration of 50 mg/kg or 200 mM/kg per day for 20 days, orally. Canthin-6-one is administered either orally or subcutaneously at a concentration of 5 mg/kg or 20 mM/kg per day for 20 days. A total dichloromethane extract of Zanthoxylum chiloperone var. angustifolium trunk bark is administered orally or subcutaneously at a concentration of 50 mg/kg per day for 20 days. For administration, the active principles are dissolved in 50 μl of a phosphate buffered saline (PBS) solution. The untreated and infected mice receive 50 μl of PBS.
• Weekly counting of the number of parasites circulating in the peripheral blood throughout the experiment, i.e. […] The serological evaluation is carried out using a Chagas ELISA assay (enzyme linked immunoassay) kit, IISC, Asuncion. The optical densities are measured with an ELISA plate reader (Titerek, Unistan, I). Statistical Studies:
as §5, with “The” for “Statistical studies: The”, “calculated, and” for “calculated,”, “untreated” for “nontreated”

Trypanosoma cruzi [4] = assay: In vivo trial on Trypanosoma cruzi in the chronic phase, Balb/c mice: parasitemia and mortality
From the text: as §6
as §7, with “For this long-duration experiment, the treatments begin 120 days after parasitic infection, when the parasitemia is subpatent in all the mice.” left out
• Weekly counting of the number of parasites circulating in the peripheral blood throughout the experiment, i.e. 30 weeks. • Observation of mortality. • Three serological evaluations, 45 days before the beginning of treatments, 10 days after treatment has stopped and 75 days post-treatment. The serological evaluation is carried out using a Chagas ELISA assay (enzyme linked immunoassay) kit, IISC, Asuncion. The optical densities are measured with an ELISA plate reader (Titerek, Unistan, I). Statistical Studies:
as §5, with “The” for “Statistical studies: The”, “calculated, and” for “calculated,”, “untreated” for “nontreated”

O=C(Cn1ccnc1[N+](=O)[O-])NCc1ccccc1 [Benznidazole, benznidazole, reference compound]
eradication of Trypanosoma cruzi from the infected organism, acute phase (Trypanosoma cruzi [1]; 50 mg/kg/d): does not make it possible to obtain | number of parasites ± standard deviation (Trypanosoma cruzi [1]; day 4 post-infection (before treatment), 50 mg/kg oral, two weeks from day 11, n = 8): 0 | number of parasites ± standard deviation (Trypanosoma cruzi [1]; day 11 post-infection (period of treatment), 50 mg/kg oral, n = 8): 0 | number of parasites ± standard deviation (Trypanosoma cruzi [1]; day 18 post-infection (period of treatment), 50 mg/kg oral, n = 8): 34.9 ± 98.6 | number of parasites ± standard deviation (Trypanosoma cruzi [1]; day 25 post-infection (period of treatment), 50 mg/kg oral, n = 8): 250.1 ± 503.5 | number of parasites ± standard deviation (Trypanosoma cruzi [1]; day 32 post-infection, 50 mg/kg oral, two weeks from day 11, n = 8): 296.8 ± 625.5 | number of parasites ± standard deviation (Trypanosoma cruzi [1]; day 39 post-infection, 50 mg/kg oral, two weeks from day 11, n = 8): 118.3 ± 192.9 | number of parasites ± standard deviation (Trypanosoma cruzi [1]; day 45 post-infection, 50 mg/kg oral, two weeks from day 11, n = 8): 300.8 ± 431.6 | number of parasites ± standard deviation (Trypanosoma cruzi [1]; day 53 post-infection, 50 mg/kg oral, two weeks from day 11, n = 8): 23.3 ± 65.8 | number of parasites ± standard deviation (Trypanosoma cruzi [1]; day 60 post-infection, 50 mg/kg oral, two weeks from day 11, n = 8): 65.3 ± 93.2 | number of parasites ± standard deviation (Trypanosoma cruzi [1]; day 68 post-infection, 50 mg/kg oral, two weeks from day 11, n = 8): 9.4 ± 26.5 | 1st serology (anti-T. cruzi ELISA, optical density) (Trypanosoma cruzi [2]; 50 mg oral): 0.1692 ± 0.1179 | 2nd serology (anti-T. cruzi ELISA, optical density) (Trypanosoma cruzi [2]; 50 mg oral): 0.7934 ± 0.8607 | ELISA (optical density ± standard deviation) (Trypanosoma cruzi [3]; 10 d post-treatment, 50 mg/kg/d orally): 1.712 ± 0.473 | ELISA (optical density ± standard deviation) (Trypanosoma cruzi [3]; 43 days before treatment (baseline), 50 mg/kg/d orally): 2.072 ± 0.220 | ELISA (optical density ± standard deviation) (Trypanosoma cruzi [3]; 75 d post-treatment, 50 mg/kg/d orally): 1.979 ± 0.350 | Negative parasitemia/number of surviving mice (Trypanosoma cruzi [4]; 0 days post-treatment, 50 mg/kg/d orally for 20 days): 5/5 | Negative parasitemia/number of surviving mice (Trypanosoma cruzi [4]; 10 d post-treatment, 50 mg/kg/d orally for 20 days): 2/5 | Negative parasitemia/number of surviving mice (Trypanosoma cruzi [4]; 40 d post-treatment, 50 mg/kg/d orally for 20 days): 5/5 | Negative parasitemia/number of surviving mice (Trypanosoma cruzi [4]; 60 d post-treatment, 50 mg/kg/d orally for 20 days): 5/5

O=c1ccc2nccc3c4ccccc4n1c23 [canthin-6-one]
effective dose against Trypanosoma cruzi relative to benznidazole (Trypanosoma cruzi [1]; activity assays, general statement): doses ten times lower than the doses at which benznidazole is effective | number of parasites ± standard deviation (Trypanosoma cruzi [1]; day 4 post-infection (before treatment), 5 mg/kg oral, two weeks from day 11, n = 7): 0 | number of parasites ± standard deviation (Trypanosoma cruzi [1]; day 4 post-infection (before treatment), 5 mg/kg subcutaneous, two weeks from day 11, n = 8): 0 | number of parasites ± standard deviation (Trypanosoma cruzi [1]; day 11 post-infection (period of treatment), 5 mg/kg oral, n = 7): 0 | number of parasites ± standard deviation (Trypanosoma cruzi [1]; day 11 post-infection (period of treatment), 5 mg/kg subcutaneous, n = 8): 0 | number of parasites ± standard deviation (Trypanosoma cruzi [1]; day 18 post-infection (period of treatment), 5 mg/kg oral, n = 7): 285 ± 515.9 | number of parasites ± standard deviation (Trypanosoma cruzi [1]; day 18 post-infection (period of treatment), 5 mg/kg subcutaneous, n = 8): 766.3 ± 719.2 | number of parasites ± standard deviation (Trypanosoma cruzi [1]; day 25 post-infection (period of treatment), 5 mg/kg oral, n = 7): 402 ± 837.7 | number of parasites ± standard deviation (Trypanosoma cruzi [1]; day 25 post-infection (period of treatment), 5 mg/kg subcutaneous, n = 8): 88.4 ± 142.9 | number of parasites ± standard deviation (Trypanosoma cruzi [1]; day 32 post-infection, 5 mg/kg oral, two weeks from day 11, n = 7): 426.2 ± 664.5 | number of parasites ± standard deviation (Trypanosoma cruzi [1]; day 32 post-infection, 5 mg/kg subcutaneous, two weeks from day 11, n = 8): 267.5 ± 546.5 | number of parasites ± standard deviation (Trypanosoma cruzi [1]; day 39 post-infection, 5 mg/kg oral, two weeks from day 11, n = 7): 36.6 ± 58.4 | number of parasites ± standard deviation (Trypanosoma cruzi [1]; day 39 post-infection, 5 mg/kg subcutaneous, two weeks from day 11, n = 8): 2077.1 ± 2214.2 | number of parasites ± standard deviation (Trypanosoma cruzi [1]; day 45 post-infection, 5 mg/kg oral, two weeks from day 11, n = 7): 34.4 ± 76.9 | number of parasites ± standard deviation (Trypanosoma cruzi [1]; day 45 post-infection, 5 mg/kg subcutaneous, two weeks from day 11, n = 8): 314.1 ± 499.3 | number of parasites ± standard deviation (Trypanosoma cruzi [1]; day 53 post-infection, 5 mg/kg oral, two weeks from day 11, n = 7): 58.4 ± 80.6 | number of parasites ± standard deviation (Trypanosoma cruzi [1]; day 53 post-infection, 5 mg/kg subcutaneous, two weeks from day 11, n = 8): 473.4 ± 921.9 | number of parasites ± standard deviation (Trypanosoma cruzi [1]; day 60 post-infection, 5 mg/kg oral, two weeks from day 11, n = 7): 16 ± 35.8 | number of parasites ± standard deviation (Trypanosoma cruzi [1]; day 60 post-infection, 5 mg/kg subcutaneous, two weeks from day 11, n = 8): 129.9 ± 194.4 | number of parasites ± standard deviation (Trypanosoma cruzi [1]; day 68 post-infection, 5 mg/kg oral, two weeks from day 11, n = 7): 0 | number of parasites ± standard deviation (Trypanosoma cruzi [1]; day 68 post-infection, 5 mg/kg subcutaneous, two weeks from day 11, n = 8): 34.9 ± 98.6 | eradication of Trypanosoma cruzi from the infected organism, acute phase (Trypanosoma cruzi [1]; orally 5 mg/kg/d): complete eradication of Trypanosoma cruzi from the infected organism | activity compared with benznidazole (50 mg/kg/d), acute phase (Trypanosoma cruzi [1]; orally 5 mg/kg/d, from the 39th day after infestation, 15 days after the end of treatment): activity that is much greater than the benznidazole | 1st serology (anti-T. cruzi ELISA, optical density) (Trypanosoma cruzi [2]; 5 mg SC): 0.2151 ± 0.1447 | 1st serology (anti-T. cruzi ELISA, optical density) (Trypanosoma cruzi [2]; 5 mg oral): 0.1105 ± 0.0387 | 2nd serology (anti-T. cruzi ELISA, optical density) (Trypanosoma cruzi [2]; 5 mg SC): 0.1347 ± 0.6327 | 2nd serology (anti-T. cruzi ELISA, optical density) (Trypanosoma cruzi [2]; 5 mg oral): 0.3953 ± 0.7531 | ELISA (optical density ± standard deviation) (Trypanosoma cruzi [3]; 10 d post-treatment, 5 mg/kg orally): 1.621 ± 0.547 | ELISA (optical density ± standard deviation) (Trypanosoma cruzi [3]; 10 d post-treatment, 5 mg/kg/d subcutaneously): 1.850 ± 0.405 | ELISA (optical density ± standard deviation) (Trypanosoma cruzi [3]; 43 days before treatment (baseline), 5 mg/kg orally): 1.878 ± 0.348 | ELISA (optical density ± standard deviation) (Trypanosoma cruzi [3]; 43 days before treatment (baseline), 5 mg/kg/d subcutaneously): 1.916 ± 0.368 | ELISA (optical density ± standard deviation) (Trypanosoma cruzi [3]; 75 d post-treatment, 5 mg/kg orally): 1.799 ± 0.333 | ELISA (optical density ± standard deviation) (Trypanosoma cruzi [3]; 75 d post-treatment, 5 mg/kg/d subcutaneously): 1.870 ± 0.268 | Negative parasitemia/number of surviving mice (Trypanosoma cruzi [4]; 0 days post-treatment, 5 mg/kg orally for 20 days): 7/8 | Negative parasitemia/number of surviving mice (Trypanosoma cruzi [4]; 0 days post-treatment, 5 mg/kg/d subcutaneously for 20 days): 6/8 | Negative parasitemia/number of surviving mice (Trypanosoma cruzi [4]; 10 d post-treatment, 5 mg/kg orally for 20 days): 7/8 | Negative parasitemia/number of surviving mice (Trypanosoma cruzi [4]; 10 d post-treatment, 5 mg/kg/d subcutaneously for 20 days): 7/8 | Negative parasitemia/number of surviving mice (Trypanosoma cruzi [4]; 40 d post-treatment, 5 mg/kg orally for 20 days): 8/8 | Negative parasitemia/number of surviving mice (Trypanosoma cruzi [4]; 40 d post-treatment, 5 mg/kg/d subcutaneously for 20 days): 6/8 | Negative parasitemia/number of surviving mice (Trypanosoma cruzi [4]; 60 d post-treatment, 5 mg/kg orally for 20 days): 8/8 | Negative parasitemia/number of surviving mice (Trypanosoma cruzi [4]; 60 d post-treatment, 5 mg/kg/d subcutaneously for 20 days): 6/8 | eradication of Trypanosoma cruzi from the infected organism, chronic phase (Trypanosoma cruzi [4]; orally 5 mg/kg/d for 20 days): complete eradication of Trypanosoma cruzi from the infected organism | protection of the mice against death, chronic phase (Trypanosoma cruzi [4]; orally 5 mg/kg/d for 20 days): protects the mice against death | activity compared with benznidazole (50 mg/kg/d), chronic phase (Trypanosoma cruzi [4]; orally 5 mg/kg/d for 20 days from the 108th day after parasitic infection, 79 days after the end of the treatment): greater activity than benznidazole
